Test results reported in ChEMBL document CHEMBL4387705, “Synthesis of new arylsulfonylspiroimidazolidine-2',4'-diones and study of their effect on stimulation of insulin release from MIN6 cell line, inhibition of human aldose reductase, sorbitol accumulations in various tissues and oxidative stress” (Eur J Med Chem, 2019).
The source made the active and inactive calls. The calls are words filed in the database; no cut-off is given here.

Experiments:
MIN6 [1] = test: Antidiabetic activity in mouse MIN6 cells after 83 passages assessed as increase in insulin secretion at 100 uM in presence of 25 mM glucose by ELISA relative to control; type: functional
[2] = Cytotoxicity against HEK293 cells assessed as reduction in cell viability at 25 uM incubated for 48 hrs by MTT assay relative to control; type: cell-based; conditions: human, read-out: INH
[3] = target: Aldo-keto reductase family 1 member A1 (Rattus norvegicus, UniProt P51635); test: Inhibition of rat kidney ALR1 using DL-glyceraldehyde as substrate and NADPH preincubated for 5 mins followed by substrate addition and measured for 30 mins at 2 mins interval by spectrophotometry relative to control
[4] = target: T1, Aldo-keto reductase family 1 member B1 (Rattus norvegicus, UniProt P07943); test: (§1) Inhibition of ALR2 in rat sciatic nerve assessed as reduction in sorbitol accumulation incubated for 3 hrs in presence of 28 mM glucose by gas chromatographic analysis
[5] = target: Aldo-keto reductase family 1 member B1 (Rattus norvegicus) (UniProt P07943); test: as §1
MIN6 [6] = test: Cytotoxicity against mouse MIN6 cells assessed as reduction in cell viability up to 200 uM incubated for 24 hrs by MTT assay; type: cell-based; conditions: min6, 24 h
[7] = Antioxidant activity assessed as DPPH radical scavenging activity at 10 uM incubated for 30 mins under dark condition by spectrophotometry; type: functional
[8] = Selectivity ratio of IC50 for rat kidney ALR1 IC50 to IC50 for human recombinant ALR2
[9] = target: T1, Aldo-keto reductase family 1 member B1; test: (§2) Inhibition of ALR2 in rat lens assessed as reduction in sorbitol accumulation incubated for 3 hrs in presence of 28 mM glucose by gas chromatographic analysis relative to control
[10] = target: Aldo-keto reductase family 1 member B1 (Rattus norvegicus) (UniProt P07943); test: as §2
[11] = target: T2, Aldo-keto reductase family 1 member B1 (Homo sapiens, UniProt P15121); test: Inhibition of human recombinant ALR2 expressed in Escherichia coli using DL-glyceraldehyde as substrate and NADPH preincubated for 5 mins followed by substrate addition and measured after 30 mins at 2 mins interval by spectrophotometry relative to control
[12] = Cytotoxicity against HEK293 cells assessed as reduction in cell viability at 100 uM incubated for 48 hrs by MTT assay relative to control; type: cell-based; conditions: human, read-out: INH
[13] = Cytotoxicity against HEK293 cells assessed as reduction in cell viability at 200 uM incubated for 48 hrs by MTT assay relative to control; type: cell-based; conditions: human, read-out: INH
MIN6 [14] = test: Antidiabetic activity in mouse MIN6 cells after 35 passages assessed as increase in insulin secretion at 100 uM in presence of 25 mM glucose by ELISA relative to control; type: functional
[15] = Antioxidant activity assessed as DPPH radical scavenging activity at 50 uM incubated for 30 mins under dark condition by spectrophotometry; type: functional
[16] = target: T1, Aldo-keto reductase family 1 member B1; test: (§3) Inhibition of ALR2 in rat erythrocytes assessed as reduction in sorbitol accumulation incubated for 3 hrs in presence of 28 mM glucose by gas chromatographic analysis relative to control; type: cell-based
[17] = target: Aldo-keto reductase family 1 member B1 (Rattus norvegicus) (UniProt P07943); test: as §3; type: cell-based
[18] = Cytotoxicity against mouse MIN6 cells assessed as cell viability at 400 uM incubated for 24 hrs by MTT assay; type: cell-based; conditions: read-out: Activity
[19] = Antioxidant activity assessed as DPPH radical scavenging activity at 100 uM incubated for 30 mins under dark condition by spectrophotometry; type: functional
MIN6 [20] = test: Effect on cell morphology in mouse MIN6 cells assessed as cell viability up to 400 uM incubated for 24 hrs; type: cell-based; conditions: min6, 24 h
[21] = Cytotoxicity against HEK293 cells assessed as reduction in cell viability at 50 uM incubated for 48 hrs by MTT assay relative to control; type: cell-based; conditions: human, read-out: INH
MIN6 [22] = test: Antidiabetic activity in mouse MIN6 cells after 35 passages assessed as increase in insulin secretion incubated for 48 hrs presence of 1 mM glucose by ELISA; type: functional, cell-based
MIN6 [23] = test: Antidiabetic activity in mouse MIN6 cells after 35 passages assessed as increase in insulin secretion incubated for 48 hrs presence of 25 mM glucose by ELISA; type: functional, cell-based
MIN6 [24] = test: Antidiabetic activity in mouse MIN6 cells after 83 passages assessed as increase in insulin secretion incubated for 48 hrs presence of 1 mM glucose by ELISA; type: functional, cell-based
[25] = target: T2, Aldo-keto reductase family 1 member B1; test: Non-competitive Inhibition of ALR2 (unknown origin) using fixed level of D,L-glyceraldehyde as substrate at 20 uM in presence of varying level of NADPH by Lineweaver-Burk plot analysis
[26] = target: T2, Aldo-keto reductase family 1 member B1; test: Non-competitive Inhibition of ALR2 (unknown origin) using varying level of D,L-glyceraldehyde as substrate at 20 uM in presence of NADPH by Lineweaver-Burk plot analysis
Mus musculus = test: Antihyperglycemic activity in alloxanized BALB/c mouse assessed as reduction in blood glucose level at 150 mg/kg, po measured after 8 hrs relative to control; type: functional
[27] = target: T2, Aldo-keto reductase family 1 member B1; test: Uncompetitive Inhibition of ALR2 (unknown origin) using varying level of D,L-glyceraldehyde as substrate at 10 uM in presence of NADPH by Lineweaver-Burk plot analysis
[28] = target: T2, Aldo-keto reductase family 1 member B1; test: Uncompetitive Inhibition of ALR2 (unknown origin) using fixed level of D,L-glyceraldehyde as substrate at 10 uM in presence of varying level of NADPH by Lineweaver-Burk plot analysis
[29] = system: CC(C)c1ccc(S(=O)(=O)N2C(=O)NC(=O)C23CCCc2ccccc23)cc1; test: Uncompetitive Inhibition of ALR2 (unknown origin) assessed as substrate Km using varying level of D,L-glyceraldehyde as substrate at 10 uM in presence of NADPH by Lineweaver-Burk plot analysis (reference value: 0.585 mM); conditions: Homo sapiens
MIN6 [30] = test: Antidiabetic activity in mouse MIN6 cells after 83 passages assessed as increase in insulin secretion incubated for 48 hrs presence of 25 mM glucose by ELISA; type: functional, cell-based

Aldo-keto reductase family 1 member A1, sequence (P51635 whole entry, looked up): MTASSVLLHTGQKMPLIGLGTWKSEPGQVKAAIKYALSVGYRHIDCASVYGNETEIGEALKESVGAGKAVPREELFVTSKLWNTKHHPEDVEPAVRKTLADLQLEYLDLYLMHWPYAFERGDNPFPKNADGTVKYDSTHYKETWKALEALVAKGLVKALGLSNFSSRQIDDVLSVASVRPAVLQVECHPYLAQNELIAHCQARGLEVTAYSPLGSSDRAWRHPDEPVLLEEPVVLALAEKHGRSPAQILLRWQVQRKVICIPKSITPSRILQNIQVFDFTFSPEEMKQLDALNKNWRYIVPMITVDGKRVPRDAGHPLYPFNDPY

| Compound | IC50 [3] [µM] | IC50 [4] [nM] | inhibition [5] | Ratio IC50 [8] | IC50 [9] [nM] | inhibition [10] | IC50 [11] [µM] | IC50 [16] [nM] | inhibition [17] | Activity (MIN6 [1]) [%] | cytotoxicity at 48 h, 25 µM [2] [%] | Activity (MIN6 [6]) | inhibition [7] [%] | cytotoxicity at 48 h, 100 µM [12] [%] | cytotoxicity at 48 h, 200 µM [13] [%] | Activity (MIN6 [14]) [%] | viability at 24 h, 400 µM [18] [%] | inhibition [19] [%] | Activity (MIN6 [20]) | cytotoxicity at 48 h, 50 µM [21] [%] | further results |
| --- | --- | --- | --- | --- | --- | --- | --- | --- | --- | --- | --- | --- | --- | --- | --- | --- | --- | --- | --- | --- | --- |
| Aldo-keto reductase family 1 member B1 (Homo sapiens) (from UniProt P15121) |  |  |  |  |  |  |  |  |  |  |  |  |  |  |  |  |  |  |  |  | Km [29]: 537 µM |
| O=C1NC(=O)C2(CCCc3ccccc32)N1S(=O)(=O)c1ccc(Br)cc1 (centres undefined) | 41.4 | 2720 | Dose-dependent effect | 7.23 | 2500 | Dose-dependent effect | 5.72 | 2790 | Dose-dependent effect | 160 | 12.8 | Non-Toxic |  | 19.4 | 25.8 | 210 | 81 | 1.59 | Non-Toxic | 18.8 |  |
| CCCCNC(=O)NS(=O)(=O)c1ccc(C)cc1 [TOLBUTAMIDE] |  |  |  |  |  |  |  |  |  | 110 |  |  |  |  |  | 340 |  |  |  |  | Activity (MIN6 [22]): Active; Activity (MIN6 [23]): Active; inhibition in vivo at 150 mg/kg (Mus musculus): 47.2%; Activity (MIN6 [30]): Active; Activity (MIN6 [24]): Active |

Further compounds by falling IC50 [3], results first:

| IC50 [3] [µM] | IC50 [4] [nM] | inhibition [5] | Ratio IC50 [8] | IC50 [9] [nM] | inhibition [10] | IC50 [11] [µM] | IC50 [16] [nM] | inhibition [17] | Compound | Activity (MIN6 [1]) [%] | cytotoxicity at 48 h, 25 µM [2] [%] | Activity (MIN6 [6]) | inhibition [7] [%] | cytotoxicity at 48 h, 100 µM [12] [%] | cytotoxicity at 48 h, 200 µM [13] [%] | Activity (MIN6 [14]) [%] | viability at 24 h, 400 µM [18] [%] | inhibition [19] [%] | Activity (MIN6 [20]) | cytotoxicity at 48 h, 50 µM [21] [%] | further results |
| --- | --- | --- | --- | --- | --- | --- | --- | --- | --- | --- | --- | --- | --- | --- | --- | --- | --- | --- | --- | --- | --- |
| 68.2 | 720 | Dose-dependent effect | 73.7 | 830 | Dose-dependent effect | 0.56 | 850 | Dose-dependent effect | CC(C)c1ccc(S(=O)(=O)N2C(=O)NC(=O)C23CCCc2ccccc23)cc1 (centres undefined) | 192 | 14.2 | Non-Toxic | 72.7 | 16.1 | 22.3 | 230 | 81 | 85.3 | Non-Toxic | 16.2 | inhibition [25]: Active; inhibition [26]: Active; inhibition in vivo at 150 mg/kg (Mus musculus): 50.3%; inhibition [27]: Active; inhibition [15]: 75.2%; inhibition [28]: Active |
| 32.5 | 13000 | Dose-dependent effect | 4.05 | 10700 | Dose-dependent effect | 8.02 | 10300 | Dose-dependent effect | CC(C)c1ccc(S(=O)(=O)N2C(=O)NC3(CCCc4ccccc43)C2=O)cc1 (centres undefined) | 84 | 10.1 | Non-Toxic | 82.3 | 12.6 | 18.5 | 295 | 81 | 92.3 | Non-Toxic | 12.5 | Activity (MIN6 [22]): inactive; Activity (MIN6 [23]): inactive; inhibition [15]: 84.2%; Activity (MIN6 [24]): inactive |
| 32.2 | 670 | Dose-dependent effect | 53.7 | 650 | Dose-dependent effect | 0.64 | 600 | Dose-dependent effect | CC(=O)c1ccc(S(=O)(=O)N2C(=O)NC(=O)C23CCCc2ccccc23)cc1 (centres undefined) | 228 | 16.3 | Non-Toxic | 25.2 | 26.6 | 34.6 | 370 | 81 | 75.5 | Non-Toxic | 23.2 | Activity (MIN6 [22]): Active; Activity (MIN6 [23]): Active; inhibition in vivo at 150 mg/kg (Mus musculus): 52.2%; inhibition [15]: 39.7%; Activity (MIN6 [30]): Active; Activity (MIN6 [24]): Active |
| 10.6 | 6370 | Dose-dependent effect | 1.88 | 7440 | Dose-dependent effect | 5.66 | 7150 | Dose-dependent effect | COc1ccc(S(=O)(=O)N2C(=O)NC(=O)C23CCCc2ccccc23)cc1 (centres undefined) | 122 | 14 | Non-Toxic | 41.4 | 25.2 | 27.5 | 170 | 81 | 66.8 | Non-Toxic | 21.1 | inhibition [15]: 53.3% |
